Test results reported in patent US9434686B2, “Deacetylase inhibitors and uses thereof” (President and Fellows of Harvard College, priority 2008, dated 2016).
“And” between values parts separate entries of the source, which are not always exact repeats. Identical values can stand only once. Like-named read-outs stand apart in the source and are kept apart here.

Test: Pharmacokinetics of WT-161 in CD-1 mice after intravenous administration (plasma, LC-MS/MS)
Assay type: in vivo
Protocol: WT-III-161 (Wt: 458.55 for free base) was dissolved in 25% DMSO, 25% Cremophor EL, and 50% saline to yield final concentration at 2 mg/mL for intravenous administration (pH=6-7). The solution was clear and light yellow, and the concentration of WT-III-161 in it was confirmed by HPLC method with an accuracy of 116.92% (Table I).
Study design, animal selection, handling and treatment were in accordance with the Shanghai Medicilon Inc. study protocol (Shanghai Medicilon Inc Study No. BRD0701). Male CD0-1 mice (body weight 23 g to 27 g) were used in this study. Before the pharmacokinetic studies, animals were randomly assigned to the treatment groups (3 animals per timepoint). Ten additional mice were used to collect plasma for calibration curves.
[…] All the samples and the dose formulation were stored at −20° C. until bioanalysis or transportation to sponsor.
The concentrations of WT-161 in plasma were determined using a high pressure liquid chromatography/mass spectrometry (LC-MS/MS) method.
The LC system comprised an Aligent liquid chromatograph equipped with an isocratic pump (1100 series), an autosampler (1100 series) and a degasser (1100 series). Mass spectrometric analysis was performed using an API3000 (triple quadrupole) instrument from AB Inc (Canada) with an ESI interface. The data acquisition and control system were created using Analyst 1.4 software from ABI Inc. Acetonitrile and methanol were HPLC grade. All other solvents and chemicals were analytical grade or better.
Pharmacokinetic software DAS 2.0 (Gaosi Data Analysis Inc., Wuhn, China) was used.
Chromatographic conditions: ColumnL Synergi Fusion-RP, 4 μm (150 mm×2.0 mm); Mobile phase: 0.1% formic acid:methanol:acetonitrile (5:90:5); Elution rate: 350 μL/min; Column temperature: 25° C.; Injection volume: 2 μL.
Scan type: positive MRM; Ion Source: Turbo spray; Ionization mode: ESI; Nebulize gas: 8 L/min; Curtain gas: 8 L/min; Collision gas: 4 L/min; Ionspray voltage: 5000 V; Temperature: 500° C.
Plasma samples (0.1 mL) were transferred to Eppendorff tubes, then 20 μL of methanol, 500 μL IS solutions (50 ng/mL) were added to it. After vortexing for 1 minute and centrifuging for 5 min at 15,000 rpm, 2 μL of supernatant was injected onto the LC-MS/MS.
The concentration in plasma below the limit of quantitation (LOQ=5 ng/mL) were designated as zero. The pharmacokinetic data analysis was performed using noncompartmental analysis modules in DAS 2.0.

[1] = male, mouse, CD-1 mice, IV 5 mg/kg, plasma

For `O=C(CCCCCCC(=O)N/N=C/c1ccc(N(c2ccccc2)c2ccccc2)cc1)NO` [WT-161], the “Concentration in plasma, individual mice 1-3” value (“Concentration in plasma” for short) (0.033 hr post-dose, IV 5 mg/kg, 5 mg/kg) was 13606.91 ng/mL and 27492.70 ng/mL and 14890.74 ng/mL, the “Concentration in plasma” value (0.083 hr post-dose, IV 5 mg/kg, 5 mg/kg) was 6082.36 ng/mL and 8591.87 ng/mL and the “Concentration in plasma” value (0.25 hr post-dose, IV 5 mg/kg, 5 mg/kg) was 1762.06 ng/mL and 1336.63 ng/mL. For the same compound, the “Concentration in plasma” value (0.5 hr post-dose, IV 5 mg/kg, 5 mg/kg) was 780.44 ng/mL and 1152.36 ng/mL, the “Concentration in plasma” value (1 hr post-dose, IV 5 mg/kg, 5 mg/kg) was 122.63 ng/mL and 57.74 ng/mL and 263.97 ng/mL and the “Concentration in plasma” value (2 hr post-dose, IV 5 mg/kg, 5 mg/kg) was 87.92 ng/mL and 114.00 ng/mL. The “Concentration in plasma” value (3 hr post-dose, IV 5 mg/kg, 5 mg/kg) was 25.12 ng/mL and 9.38 ng/mL and 14.37 ng/mL, the “Concentration in plasma” value (4 hr post-dose, IV 5 mg/kg, 5 mg/kg) was 74.08 ng/mL and 20.79 ng/mL and 7.37 ng/mL and the “Concentration in plasma” value (6 hr post-dose, IV 5 mg/kg, LOQ 5 ng/mL, 5 mg/kg) was “BLQ and 6.57 ng/mL”. For the same compound, the “Concentration in plasma” value (8 hr post-dose, IV 5 mg/kg, LOQ 5 ng/mL) was “BLQ”, the “Concentration in plasma” value (24 hr post-dose, IV 5 mg/kg, LOQ 5 ng/mL) was “BLQ” and the “Systemic clearance as percent of mouse hepatic blood flow (5.40 L/hr/kg)” value (CD-1 mice, IV bolus 5 mg/kg) was 30.37%. For the same compound, the concentration at 0.033 hr (male, CD-1, mouse, plasma, iv, 5 mg/kg, 0.033 hr post-dose, IV 5 mg/kg) was 18700 ng/mL, the concentration at 0.083 hr (male, CD-1, mouse, plasma, iv, 5 mg/kg, 0.083 hr post-dose, IV 5 mg/kg, read-out: Concentration in plasma, Mean) was 8000 ng/mL and the concentration at 0.083 hr (male, CD-1, mouse, plasma, iv, 5 mg/kg, 0.083 hr post-dose, IV 5 mg/kg, read-out: Concentration in plasma, individual mice 1-3) was 9330 ng/mL. It also gave a concentration at 0.25 hr (male, CD-1, mouse, plasma, iv, 5 mg/kg, 0.25 hr post-dose, IV 5 mg/kg, read-out: Concentration in plasma, Mean) of 1760 ng/mL, a concentration at 0.25 hr (male, CD-1, mouse, plasma, iv, 5 mg/kg, 0.25 hr post-dose, IV 5 mg/kg, read-out: Concentration in plasma, individual mice 1-3) of 2190 ng/mL and a concentration at 0.5 hr (male, CD-1, mouse, plasma, iv, 5 mg/kg, 0.5 hr post-dose, IV 5 mg/kg, read-out: Concentration in plasma, Mean) of 956 ng/mL. It also gave a concentration at 0.5 hr (male, CD-1, mouse, plasma, iv, 5 mg/kg, 0.5 hr post-dose, IV 5 mg/kg, read-out: Concentration in plasma, individual mice 1-3) of 934 ng/mL, a concentration at 1 hr (male, CD-1, mouse, plasma, iv, 5 mg/kg, 1 hr post-dose, IV 5 mg/kg) of 148 ng/mL and a concentration at 2 hr (male, CD-1, mouse, plasma, iv, 5 mg/kg, 2 hr post-dose, IV 5 mg/kg, read-out: Concentration in plasma, Mean) of 95.2 ng/mL. For the same compound, the concentration at 2 hr (male, CD-1, mouse, plasma, iv, 5 mg/kg, 2 hr post-dose, IV 5 mg/kg, read-out: Concentration in plasma, individual mice 1-3) was 83.6 ng/mL, the concentration at 3 hr (male, CD-1, mouse, plasma, iv, 5 mg/kg, 3 hr post-dose, IV 5 mg/kg) was 16.3 ng/mL and the concentration at 4 hr (male, CD-1, mouse, plasma, iv, 5 mg/kg, 4 hr post-dose, IV 5 mg/kg) was 34.1 ng/mL. It also gave a concentration at 6 hr (male, CD-1, mouse, plasma, iv, 5 mg/kg, 6 hr post-dose, IV 5 mg/kg, BLQ designated as zero, read-out: Concentration in plasma, Mean) of 4.15 ng/mL, a concentration at 6 hr (male, CD-1, mouse, plasma, iv, 5 mg/kg, 6 hr post-dose, IV 5 mg/kg, LOQ 5 ng/mL, read-out: Concentration in plasma, individual mice 1-3) of 5.87 ng/mL and a Cmax (male, CD-1, mouse, plasma, iv, 5 mg/kg, CD-1 mice, IV 5 mg/kg, read-out: Cmax) of 18700 ng/mL. The Cmax (male, CD-1, mouse, plasma, iv, 5 mg/kg, IV, nominal dose 5 mg/kg, read-out: Cmax (at 2 minutes after dosing)) was 18700 ng/mL, the Tmax (male, mouse, plasma, CD-1 mice, IV 5 mg/kg) was 1.8 min and the clearance (male, mouse, plasma, CD-1 mice, IV 5 mg/kg, read-out: CLZ (systemic clearance) (converted)) was 27.3 mL/min/kg. It also gave an MRT inf (male, mouse, plasma, CD-1 mice, IV 5 mg/kg, read-out: MRT(0-∞)) of 19.8 min, a half-life (male, mouse, plasma, CD-1 mice, IV 5 mg/kg, read-out: T1/2z (half-life) (converted)) of 84.6 min and a Vd (male, mouse, plasma, CD-1 mice, IV 5 mg/kg, read-out: VZ (volume of distribution at terminal phase)) of 3.33 L/kg. The AUC(0-inf) [1] was 3050 ng·h/mL, the AUC(0-t) [1] was 3020 ng·h/mL and the Tissue distribution (mice, IV 5 mg/kg) was “distributes well in tissues”. The “Volume of distribution as fold of total body water (0.73 L/kg)” value (mice, IV 5 mg/kg) was 4.56 fold.
